These results are taken from patent US6300471A, “FSH-releasing peptides” (Board of Supervisors of Louisiana State University and …, priority 1998, dated 2001).

Test [1] relates to hemi-anterior pituitaries of adult male rats. Kind of test: FSH release in vitro from incubated hemi-anterior pituitaries (RIA of medium). The class given is cell-based, rat. The following applies: for FSH: Table 2, 3 hr incubation, KRB control 97.7 ± 20.4, n = 6. The procedure: (§1) After acclimatization for 5 or more days in the vivarium, male rats were killed by decapitation. Following removal of the posterior lobe, the anterior pituitary (AP) was bisected longitudinally, and each AP was incubated in a tube containing 0.5 ml Krebs-Ringer bicarbonate (5 mM ascorbic acid; pH 7.4) buffer (KRB) in an atmosphere of 95% O2 /5% CO2 in a Dubnoff shaker (50 cycles per min) for a period of 60 min. Following this pre-incubation period, the APs were incubated for 3 hr in fresh KRB buffer alone (control), or in KRB containing one of various concentrations of synthetic mammalian (m)-LHRH, l-LHRH-III, l-LHRH-I, chicken (c)-LHRH-II, or salmon (s)-LHRH. The medium was then aspirated, and was stored frozen at -20° C. until radio-immunoassays (RIA) for FSH and LH were conducted. FSH and LH were measured using kits supplied by the National Institute of Arthritis Digestive Diabetes and Kidney Disease; hormone values were expressed in terms of NIH-rFSH-RP-2 and NIH-rLH-RP-3 standards. The experiments were repeated twice. The inter- and intra-assay coefficients of variation for FSH assays were 7.5% and 5.2%, respectively; and were 6.5% and 4.8% for LH assays.

Test [2] shares this test system. Kind of test: LH release in vitro from incubated hemi-anterior pituitaries (RIA of medium). The class given is cell-based, rat. The following applies: for LH: Table 3, 3 hr incubation, KRB control 139.3 ± 16.9, n = 6. The protocol:
as §1

For test [3], the system named is rats. The following applies: Yu et al., 1990; cited from earlier work.

Entries after “also recorded” stand apart in the source; their conditions may differ. Where a SMILES comes first, the peptide text is derived from it. [ ]: non-standard residue; d: D form. pGlu = O=C1CC[C@@H](C(=O)O)N1

`CC(C)C[C@H](NC(=O)[C@H](CO)NC(=O)[C@H](Cc1ccc(O)cc1)NC(=O)[C@H](Cc1c[nH]cn1)NC(=O)[C@@H]1CCC(=O)N1)C(=O)N[C@@H](CCC(=O)O)C(=O)N[C@@H](Cc1c[nH]c2ccccc12)C(=O)N[C@@H](CCCCN)C(=O)N1CCC[C@H]1C(=O)NCC(N)=O` [l-LHRH-I, pGlu-His-Tyr-Ser-Leu-Glu-Trp-Lys-Pro-Gly-NH2] ([pGlu]HYSLEWKPG-NH2): the “FSH release in vitro, result in words” value in test [1] is reported as “minimal potency to release either FSH or LH; also recorded: small but statistically significant release of FSH at a concentration of 10^-5 M”. Moreover, the “FSH” value in test [1] (10^-5 M) was 178.2 ± 17.0 ng/mL; in test [1] (10^-6 M) it was 164.0 ± 29.3 ng/mL. In addition, the “LH release in vitro, result in words” value in test [2] is “minimal potency to release either FSH or LH; also recorded: inactive at the two concentrations tested”. The “LH” value turned out to be 120.4 ± 8.1 ng/mL in test [2] (10^-5 M) and 134.1 ± 23.2 ng/mL in test [2] (10^-6 M). The “activity in releasing FSH or LH in rats” value in test [3] was “relatively low activity in releasing either FSH or LH”.
